The record followed here is US6835715B1, “Mammalian dihydroouabain-like factor and therapeutic compositions” (University of Louisville Research Foundation, Inc., priority 1999, dated 2004).

Assay [1] deals with porcine cerebral cortex Na+,K+-ATPase. Put plainly: Inhibition of Na+,K+-ATPase catalytic activity (phosphate release from ATP). It counts as biochemical. The protocol:
Dried frozen powder of porcine cerebral cortical tissue (PCC) was reconstituted at 1 Unit/ml in buffer containing; 50 mM Tris-HCl and 2 mM MgCl2, at a pH of 7.2. The reconstituted tissue was then washed three times and resuspended in the same buffer. The protein concentration was determined by BIO-RAD Protein Assay (Bio-Rad, Hercules, Calif.), adjusted to about 1 mg/ml and used both in the catalytic inhibition and ouabain-stimulated phosphorylation experiments (PAGE and Western analysis). The inhibition assay was performed briefly by pipetting 20 μl of sample containing the desired concentration of glycoside (Tris buffer was used for no-inhibitor control) into a well of a microtiter plate placed in a 37° C. water bath for 10 minutes. […] After the incubation period, we added 150 μl of molybdate solution (per liter, 1.0 mmol of molybdate, 11 mmol of sulfuric acid, and 142 ml of Tween 80: methanol solution (12:88 by vol). After 30 minutes of incubation, color development was allowed to proceed for a maximum of 30 min. after which the color intensity was measured by pipetting 150 μl of the reaction mixture from each well to a corresponding well on another microtiter plate. The color intensity is proportional to the release of phosphate ions which is a direct indicator of ATP breakdown and therefore NKA activity. The absorbances were measured simultaneously at 340 nm. […]

The subject of assay [2] is anti-dihydroouabain antibody. Put plainly: Dihydroouabain EIA, cross-reactivity with anti-dihydroouabain antibody. It is filed as binding, rabbit. Conditions: dihydroouabain = 100%. The protocol:
OLF was measured using ouabain EIA. This assay uses ouabain covalently bound to the microtiter plate to compete with unbound samples or standards for binding to a constant amount of anti-ouabain antibody (Harris et al., 1991). Dihydroouabain-like immunoreactivity was measured by EIA using a polyclonal dihydroouabain-specific antibody prepared according to our specifications by HTI Bio-Product Inc (Ramona, Calif.). The antibody production strategy was as follows: dihydroouabain (dho) was conjugated to keyhole limpet hemocyanin (KLH) through the rhamnose sugar ring and the resulting conjugate was injected in three rabbits. Blood samples from the rabbits were drawn three weeks after the primary injection, and every two weeks after subsequent booster injections. […]
Briefly, immunoassay plates were coated with approximately 0.5 μg dho-BSA conjugate/well for a minimum of 18 hrs. at 4° C. […] Color development was monitored at 650 nm for a maximum of 30 min. after which the reaction was stopped with TMB Stop buffer and the plate was then read at 450 nm. The readings were adjusted with a system blank and for non-specific binding.
Two specific antibodies, one against ouabain and one against dihydroouabain, were used to characterize OLF and DH-OLF. […] The concentrations were determined using molar absorptivities as described above.

Assay [3] has as its system Na+,K+-ATPase α-subunits (porcine cerebral cortical tissue). Put plainly: Ouabain-stimulated 32Pi phosphorylation of Na+,K+-ATPase alpha subunit. It counts as biochemical. The conditions noted are these: equimolar concentrations; ouabain = 100%; listed as Dho. The protocol:
The ouabain-stimulated phosphorylation of Na^+, K^+-ATPase by phosphate was performed as described in Huang et al., (1994) with some minor modifications. Since the covalently phosphorylated intermediate of the sodium pump formed from inorganic phosphorous (^32Pi) is alkali-labile (acid-stable phosphenzyme intermediate), acidic pH gel electrophoresis was used to resolve the radioactively labeled protein species. Briefly, 60 μl aliquots containing 100-200 μg of porcine cerebral cortical tissues (PCC) were pre-incubated at room temperature for 25 min. with 20 μl of sample in the reaction buffer (50 mM Tris-HCL and 2 mM MgCl2, pH 7.2). A positive control was pre-incubated with 20 μl of a 1 mM ouabain solution also, a negative control was pre-incubated with 20 μl of buffer alone. 10 μl of ^32Pi (1 mCi in 100 μl) was diluted with 250 μl of phosphoric acid and purified through 0.2 μm filter to remove polyphosphates. At the end of the incubation, 20 μl of the ^32Pi filtrate (30 μM, 8 uCi) was added to the mixture and allowed to incubate at room temperature for an additional 15 minutes. The reaction was terminated by the addition of 1 ml 8% HCLO4 which precipitated the proteins and left unincorporated ^32Pi in solution. […] Autoradiograms were quantitated using a soft laser scanning densitometer. […]

The next assay relates to anti-ouabain antibody. Put plainly: Ouabain EIA, cross-reactivity with anti-ouabain antibody. It is filed as binding. The conditions noted are these: for cross-reactivity with ouabain antibody: ouabain = 100%. Here is the method: UV spectral properties, molar absorptivity, and concentrations of these endogenous factors were calculated.
OLF was measured using ouabain EIA. This assay uses ouabain covalently bound to the microtiter plate to compete with unbound samples or standards for binding to a constant amount of anti-ouabain antibody (Harris et al., 1991). Dihydroouabain-like immunoreactivity was measured by EIA using a polyclonal dihydroouabain-specific antibody prepared according to our specifications by HTI Bio-Product Inc (Ramona, Calif.). The antibody production strategy was as follows: dihydroouabain (dho) was conjugated to keyhole limpet hemocyanin (KLH) through the rhamnose sugar ring and the resulting conjugate was injected in three rabbits. Blood samples from the rabbits were drawn three weeks after the primary injection, and every two weeks after subsequent booster injections.
Two specific antibodies, one against ouabain and one against dihydroouabain, were used to characterize OLF and DH-OLF. Both of these antibodies are sensitive to structural changes at the lactone ring epitope of these molecules. […] The concentrations were determined using molar absorptivities as described above.

For the compound `C[C@@H]1O[C@@H](O[C@H]2C[C@@H](O)[C@]3(CO)[C@H]4[C@H](O)C[C@]5(C)[C@@H]([C@@H]6COC(=O)C6)CC[C@]5(O)[C@@H]4CC[C@]3(O)C2)[C@H](O)[C@H](O)[C@H]1O` [dho-B], the IC50 (as a rule, the concentration needed to halve the response being measured) in assay [1] (porcine cerebral cortex enzyme, read-out: IC50 for inhibiting the catalytic activity of the Na+,K+-ATPase enzyme) stood at 1.7 µM. Moreover, in assay [1] (relative to ouabain), the “times less potent than ouabain for inhibition of Na+,K+-ATPase” value was found to be 3 times.

In the case of `C[C@@H]1O[C@@H](O[C@H]2C[C@@H](O)[C@]3(CO)[C@H]4[C@H](O)C[C@]5(C)[C@@H]([C@@H]6COC(=O)C6)CC[C@]5(O)[C@@H]4CC[C@]3(O)C2)[C@H](O)[C@H](O)[C@H]1O` [dihydroouabain, Dihydroouabain], the “cross-reactivity with dihydroouabain antibody” value in assay [2] is reported as 100%. Also, the “phosphorylation activity relative to ouabain” value in assay [3] was found to be 82%. Besides, in the assay with anti-ouabain antibody, the “affinity for anti-ouabain antibody” value is listed as “little affinity” and the “cross-reactivity with ouabain antibody” value is recorded as 2-3%.

With `C[C@@H]1O[C@@H](O[C@H]2C[C@@H](O)[C@]3(CO)[C@H]4[C@H](O)C[C@]5(C)[C@@H](C6=CC(=O)OC6)CC[C@]5(O)[C@@H]4CC[C@]3(O)C2)[C@H](O)[C@H](O)[C@H]1O` [ouabain, Ouabain], the “cross-reactivity with dihydroouabain antibody” value in assay [2] was determined as 0.1%. In the assay with anti-ouabain antibody, the “cross-reactivity with ouabain antibody” value came to 100%.
